Test results reported in patent publication US20260285850A1, “SUBSTITUTED OXAZOLIDINONES AND IMIDAZOLINONES AS HERBICIDES” (FMC CORPORATION, priority 2023, published 2026).

Columns and labels:
Assay type in all cases: in vivo
[1] = tested on: barnyardgrass (Echinochloa crus-galli); assay: Test A preemergence soil spray, visual injury rating 0-100; conditions: 10 days, 0 = no effect, 100 = complete control
Procedure, shortened: (§1)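 Seeds sown in loam-sand blend got a preemergence directed soil spray, or emerged plants (2-10 cm, one- to two-leaf) got a postemergence spray, of compound in non-phytotoxic solvent with surfactant. After 10 days in greenhouse, injury rated visually versus untreated controls on a 0 (no effect) to 100 (complete control) scale.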

[2] = tested on: blackgrass (Alopecurus myosuroides); assay: as above; conditions: 10 days, 0 = no effect, 100 = complete control
Procedure, shortened: as §1

corn (Zea mays) [3] = assay: as above; conditions: 10 days, 0 = no effect, 100 = complete control
Procedure, shortened: as §1

[4] = tested on: green foxtail (Setaria viridis); assay: as above; conditions: 10 days, 0 = no effect, 100 = complete control
Procedure, shortened: as §1

kochia (Bassia scoparia) [5] = assay: as above; conditions: 10 days, 0 = no effect, 100 = complete control
Procedure, shortened: as §1

[6] = tested on: oat, wild (wild oat, Avena fatua); assay: as above; conditions: 10 days, 0 = no effect, 100 = complete control
Procedure, shortened: as §1

[7] = tested on: palmer (palmer amaranth, palmer pigweed, Amaranthus palmeri); assay: as above; conditions: 10 days, 0 = no effect, 100 = complete control
Procedure, shortened: as §1

[8] = tested on: ragweed (common ragweed, Ambrosia artemisiifolia); assay: as above; conditions: 10 days, 0 = no effect, 100 = complete control
Procedure, shortened: as §1

soybean (Glycine max) [9] = assay: as above; conditions: 10 days, 0 = no effect, 100 = complete control
Procedure, shortened: as §1

[10] = tested on: wheat (Triticum aestivum); assay: as above; conditions: 10 days, 0 = no effect, 100 = complete control
Procedure, shortened: as §1

[11] = tested on: barnyardgrass (Echinochloa crus-galli); assay: Test A postemergence application, visual injury rating 0-100; conditions: 10 days
Procedure, shortened: as §1

[12] = tested on: blackgrass (Alopecurus myosuroides); assay: as above; conditions: 10 days
Procedure, shortened: as §1

corn (Zea mays) [13] = assay: as above; conditions: 10 days
Procedure, shortened: as §1

[14] = tested on: galium (catchweed bedstraw, Galium aparine); assay: as above; conditions: 10 days
Procedure, shortened: as §1

[15] = tested on: green foxtail (Setaria viridis); assay: as above; conditions: 10 days
Procedure, shortened: as §1

[16] = tested on: horseweed (Erigeron canadensis); assay: as above; conditions: 10 days
Procedure, shortened: as §1

kochia (Bassia scoparia) [17] = assay: as above; conditions: 10 days
Procedure, shortened: as §1

[18] = tested on: oat, wild (wild oat, Avena fatua); assay: as above; conditions: 10 days
Procedure, shortened: as §1

[19] = tested on: palmer (palmer amaranth, palmer pigweed, Amaranthus palmeri); assay: as above; conditions: 10 days
Procedure, shortened: as §1

[20] = tested on: ragweed (common ragweed, Ambrosia artemisiifolia); assay: as above; conditions: 10 days
Procedure, shortened: as §1

[21] = tested on: ryegrass, Italian (italian ryegrass, Lolium multiflorum); assay: as above; conditions: 10 days
Procedure, shortened: as §1

soybean (Glycine max) [22] = assay: as above; conditions: 10 days
Procedure, shortened: as §1

[23] = tested on: wheat (Triticum aestivum); assay: as above; conditions: 10 days
Procedure, shortened: as §1

[24] = tested on: barnyardgrass (Echinochloa crusgalli); assay: Test B flooded paddy test, visual plant response rating 0-100; conditions: 250 g ai/ha, Flood, applied to paddy water, evaluated after 13 days
Procedure, shortened: (§2)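 In this flooded assay, 2-leaf seedlings received compound through the water layer, kept at 3 cm over the soil. Plants were held 13 days in a greenhouse and then visually compared with control pots.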

[25] = tested on: ducksalad (Heteranthera limosa); assay: as above; conditions: 250 g ai/ha, Flood, applied to paddy water, evaluated after 13 days
Procedure, shortened: as §2

rice (Oryza sativa) = assay: as above; conditions: 250 g ai/ha, Flood, applied to paddy water, evaluated after 13 days
Procedure, shortened: as §2

[26] = tested on: sedge, umbrella (small-flower umbrella sedge, Cyperus difformis); assay: as above; conditions: 250 g ai/ha, Flood, applied to paddy water, evaluated after 13 days
Procedure, shortened: as §2

[27] = 31 g ai/ha, postemergence, 0 = no effect, 100 = complete control
[28] = Postemergence, 125 g ai/ha, 0 is no effect, 100 is complete control

## CC1(C(=O)NC2C=CC(C(=O)O)C2)CN(c2cc(F)cc(Cl)c2)C(=O)O1 (centres unmarked) [Compound 6]
[1]; 31 g ai/ha
  Barnyardgrass plant response rating (0-100): 20
[1]; 125 g ai/ha
  Barnyardgrass plant response rating (0 to 100 scale): 100
[2]; 31 g ai/ha
  Blackgrass plant response rating (0-100): 30
[2]; 125 g ai/ha
  Blackgrass plant response rating (0 to 100 scale): 60
Corn (Zea mays) [3]; 31 g ai/ha
  Corn plant response rating (0-100): 30
Corn (Zea mays) [3]; 125 g ai/ha
  Corn plant response rating (0 to 100 scale): 90
[4]; 31 g ai/ha
  Foxtail, Green plant response rating (0-100): 50
[4]; 125 g ai/ha
  Foxtail, Green plant response rating (0 to 100 scale): 100
Kochia (Bassia scoparia) [5]; 31 g ai/ha
  Kochia plant response rating (0-100): 100
Kochia (Bassia scoparia) [5]; 125 g ai/ha
  Kochia plant response rating (0 to 100 scale): 100
[6]; 31 g ai/ha
  Oat, Wild plant response rating (0-100): 30
[6]; 125 g ai/ha
  Oat, Wild plant response rating (0 to 100 scale): 90
[7]; 31 g ai/ha
  Amaranth, Palmer plant response rating (0-100): 60
[7]; 125 g ai/ha
  Amaranth, Palmer plant response rating (0 to 100 scale): 90
[8]; 31 g ai/ha
  Ragweed plant response rating (0-100): 0
[8]; 125 g ai/ha
  Ragweed plant response rating (0 to 100 scale): 40
Soybean (Glycine max) [9]; 31 g ai/ha
  Soybean plant response rating (0-100): 50
Soybean (Glycine max) [9]; 125 g ai/ha
  Soybean plant response rating (0 to 100 scale): 80
[10]; 31 g ai/ha
  Wheat plant response rating (0-100): 50
[10]; 125 g ai/ha
  Wheat plant response rating (0 to 100 scale): 90
[11]; [27]
  Barnyardgrass plant response rating (0-100): 100
[11]; [28]
  Barnyardgrass plant response rating (0 to 100 scale): 100
[12]; [27]
  Blackgrass plant response rating (0-100): 80
[12]; [28]
  Blackgrass plant response rating (0 to 100 scale): 90
Corn (Zea mays) [13]; [27]
  Corn plant response rating (0-100): 100
Corn (Zea mays) [13]; [28]
  Corn plant response rating (0 to 100 scale): 100
[14]; [27]
  Galium plant response rating (0-100): 80
[14]; [28]
  Galium plant response rating (0 to 100 scale): 80
[15]; [27]
  Foxtail, Green plant response rating (0-100): 90
[15]; [28]
  Foxtail, Green plant response rating (0 to 100 scale): 90
[16]; [27]
  Horseweed plant response rating (0-100): 40
[16]; [28]
  Horseweed plant response rating (0 to 100 scale): 90
Kochia (Bassia scoparia) [17]; [27]
  Kochia plant response rating (0-100): 80
Kochia (Bassia scoparia) [17]; [28]
  Kochia plant response rating (0 to 100 scale): 80
[18]; [27]
  Oat, Wild plant response rating (0-100): 90
[18]; [28]
  Oat, Wild plant response rating (0 to 100 scale): 100
[19]; [27]
  Amaranth, Palmer plant response rating (0-100): 90
[19]; [28]
  Amaranth, Palmer / Pigweed, Palmer plant response rating (0 to 100 scale): 90
[20]; [27]
  Ragweed plant response rating (0-100): 60
[20]; [28]
  Ragweed plant response rating (0 to 100 scale): 80
[21]; [27]
  Ryegrass, Italian plant response rating (0-100): 80
[21]; [28]
  Ryegrass, Italian plant response rating (0 to 100 scale): 90
Soybean (Glycine max) [22]; [27]
  Soybean plant response rating (0-100): 80
Soybean (Glycine max) [22]; [28]
  Soybean plant response rating (0 to 100 scale): 80
[23]; [27]
  Wheat plant response rating (0-100): 90
[23]; [28]
  Wheat plant response rating (0 to 100 scale): 90
[24]
  Plant response rating, Barnyardgrass (0 to 100 scale, 0 is no effect and 100 is complete control): 70
[25]
  Plant response rating, Ducksalad (0 to 100 scale, 0 is no effect and 100 is complete control): 95
Rice (Oryza sativa)
  Plant response rating, Rice (0 to 100 scale, 0 is no effect and 100 is complete control): 35
[26]
  Plant response rating, Sedge, Umbrella (0 to 100 scale, 0 is no effect and 100 is complete control): 95
